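Compound exposure: 48 hours, 5 concentrations, 96-well plates. TGI is the concentration that stops growth completely.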
Columns and labels:
Assay in all cases: NCI tumour cell line growth inhibition, 48 h
A498 renal = test system: A498 renal
A549 NSCLC = test system: A549 NSCLC
CAKI-1 renal = test system: CAKI-1 renal
CCRF-CEM leukemia = test system: CCRF-CEM leukemia
COLO 205 colon = test system: COLO 205 colon
DLD-1 colon = test system: DLD-1 colon
DMS 114 small cell lung = test system: DMS 114 small cell lung
DMS 273 small cell lung = test system: DMS 273 small cell lung
EKVX NSCLC = test system: EKVX NSCLC
HCC-2998 colon = test system: HCC-2998 colon
HCT-116 colon = test system: HCT-116 colon
HCT-15 colon = test system: HCT-15 colon
HL-60(TB) leukemia = test system: HL-60(TB) leukemia
HOP-18 NSCLC = test system: HOP-18 NSCLC
HOP-62 NSCLC = test system: HOP-62 NSCLC
HT29 colon = test system: HT29 colon
IGROV1 ovarian = test system: IGROV1 ovarian
K-562 leukemia = test system: K-562 leukemia
KM12 colon = test system: KM12 colon
KM20L2 colon = test system: KM20L2 colon
LOX IMVI melanoma = test system: LOX IMVI melanoma
MCF7 breast = test system: MCF7 breast
MOLT-4 leukemia = test system: MOLT-4 leukemia
NCI-H226 lung = test system: NCI-H226 lung
NCI-H23 lung = test system: NCI-H23 lung
NCI-H460 lung = test system: NCI-H460 lung
NCI-H522 lung = test system: NCI-H522 lung
NCI/ADR-RES ovarian = test system: NCI/ADR-RES ovarian
OVCAR-3 ovarian = test system: OVCAR-3 ovarian
OVCAR-4 ovarian = test system: OVCAR-4 ovarian
OVCAR-5 ovarian = test system: OVCAR-5 ovarian
OVCAR-8 ovarian = test system: OVCAR-8 ovarian
P388 leukemia = test system: P388 leukemia
P388/ADR leukemia = test system: P388/ADR leukemia
RPMI-8226 leukemia = test system: RPMI-8226 leukemia
RXF 393 renal = test system: RXF 393 renal
SF-268 CNS = test system: SF-268 CNS
SF-295 CNS = test system: SF-295 CNS
SF-539 CNS = test system: SF-539 CNS
SK-MEL-28 melanoma = test system: SK-MEL-28 melanoma
SK-MEL-5 melanoma = test system: SK-MEL-5 melanoma
SN12C renal = test system: SN12C renal
SN12K1 renal = test system: SN12K1 renal
SNB-19 CNS = test system: SNB-19 CNS
SNB-75 CNS = test system: SNB-75 CNS
SNB-78 CNS = test system: SNB-78 CNS
SW-620 colon = test system: SW-620 colon
U251 CNS = test system: U251 CNS
UACC-257 melanoma = test system: UACC-257 melanoma
UACC-62 melanoma = test system: UACC-62 melanoma
UO-31 renal = test system: UO-31 renal
XF 498 CNS = test system: XF 498 CNS
HOP-92 NSCLC = test system: HOP-92 NSCLC
M19-MEL melanoma = test system: M19-MEL melanoma
MALME-3M melanoma = test system: MALME-3M melanoma
SK-MEL-2 melanoma = test system: SK-MEL-2 melanoma
SK-OV-3 ovarian = test system: SK-OV-3 ovarian

C=C1CC(OC)(C(OC)C(=O)N(C)[C@H]2OCO[C@H]3C2O[C@H](C[C@@H](COC)OC)C(C)(C)C3OC)O[C@H](C)[C@@H]1C (stereo partly specified)
TGI (A498 renal): 28.8 µM
TGI (A549 NSCLC): > 91.7 µM
TGI (CAKI-1 renal): 28.5 µM
TGI (CCRF-CEM leukemia): 37.7 µM
TGI (COLO 205 colon): 20.9 µM
TGI (DLD-1 colon): 70.4 µM
TGI (DMS 114 small cell lung): 34.9 µM
TGI (DMS 273 small cell lung): 29 µM
TGI (EKVX NSCLC): 60.7 µM
TGI (HCC-2998 colon): 31.6 µM
TGI (HCT-116 colon): 30.6 µM
TGI (HCT-15 colon): 87.3 µM
TGI (HL-60(TB) leukemia): 39.6 µM
TGI (HOP-18 NSCLC): 71.2 µM
TGI (HOP-62 NSCLC): > 91.7 µM
TGI (HT29 colon): 29 µM
TGI (IGROV1 ovarian): 32.5 µM
TGI (K-562 leukemia): 40.9 µM
TGI (KM12 colon): 25.9 µM
TGI (KM20L2 colon): 36.8 µM
TGI (LOX IMVI melanoma): 26.5 µM
TGI (MCF7 breast): 28.8 µM
TGI (MOLT-4 leukemia): 36 µM
TGI (NCI-H226 lung): 23.9 µM
TGI (NCI-H23 lung): 34.7 µM
TGI (NCI-H460 lung): 64.5 µM
TGI (NCI-H522 lung): 29.9 µM
TGI (NCI/ADR-RES ovarian): 41.2 µM
TGI (OVCAR-3 ovarian): 37.8 µM
TGI (OVCAR-4 ovarian): 22.2 µM
TGI (OVCAR-5 ovarian): 69.2 µM
TGI (OVCAR-8 ovarian): > 91.7 µM
TGI (P388 leukemia): 18.2 µM
TGI (P388/ADR leukemia): 38.8 µM
TGI (RPMI-8226 leukemia): 53.2 µM
TGI (RXF 393 renal): 24.8 µM
TGI (SF-268 CNS): 30.2 µM
TGI (SF-295 CNS): 30 µM
TGI (SF-539 CNS): 42.8 µM
TGI (SK-MEL-28 melanoma): 40.6 µM
TGI (SK-MEL-5 melanoma): > 9.17 µM
TGI (SN12C renal): 86.6 µM
TGI (SN12K1 renal): 38.6 µM
TGI (SNB-19 CNS): 46.8 µM
TGI (SNB-75 CNS): 24.7 µM
TGI (SNB-78 CNS): 43.5 µM
TGI (SW-620 colon): > 91.7 µM
TGI (U251 CNS): 54.4 µM
TGI (UACC-257 melanoma): 30.3 µM
TGI (UACC-62 melanoma): 33.1 µM
TGI (UO-31 renal): 49.1 µM
TGI (XF 498 CNS): 40.1 µM

COc1cc(-c2ccc(N=Nc3c(S(=O)(=O)O)cc4cc(S(=O)(=O)O)cc(N)c4c3O)c(OC)c2)ccc1N=Nc1c(S(=O)(=O)O)cc2cc(S(=O)(=O)O)cc(N)c2c1O
TGI (A498 renal): > 100 µM
TGI (A549 NSCLC): > 100 µM
TGI (CCRF-CEM leukemia): > 100 µM
TGI (COLO 205 colon): > 100 µM
TGI (DLD-1 colon): > 100 µM
TGI (DMS 114 small cell lung): > 100 µM
TGI (DMS 273 small cell lung): > 100 µM
TGI (EKVX NSCLC): > 100 µM
TGI (HCC-2998 colon): > 100 µM
TGI (HCT-116 colon): > 100 µM
TGI (HCT-15 colon): > 100 µM
TGI (HL-60(TB) leukemia): > 100 µM
TGI (HOP-18 NSCLC): > 100 µM
TGI (HOP-62 NSCLC): > 100 µM
TGI (HOP-92 NSCLC): > 77.4 µM
TGI (HT29 colon): > 100 µM
TGI (IGROV1 ovarian): > 100 µM
TGI (K-562 leukemia): > 100 µM
TGI (KM12 colon): > 100 µM
TGI (KM20L2 colon): > 100 µM
TGI (LOX IMVI melanoma): > 100 µM
TGI (M19-MEL melanoma): > 100 µM
TGI (MALME-3M melanoma): > 100 µM
TGI (MCF7 breast): > 100 µM
TGI (MOLT-4 leukemia): > 100 µM
TGI (NCI-H226 lung): > 100 µM
TGI (NCI-H23 lung): > 100 µM
TGI (NCI-H460 lung): > 100 µM
TGI (NCI-H522 lung): > 100 µM
TGI (NCI/ADR-RES ovarian): > 100 µM
TGI (OVCAR-3 ovarian): > 100 µM
TGI (OVCAR-4 ovarian): > 100 µM
TGI (OVCAR-5 ovarian): > 100 µM
TGI (OVCAR-8 ovarian): > 100 µM
TGI (P388 leukemia): > 100 µM
TGI (RPMI-8226 leukemia): > 100 µM
TGI (RXF 393 renal): > 100 µM
TGI (SF-268 CNS): > 100 µM
TGI (SF-295 CNS): > 100 µM
TGI (SF-539 CNS): > 100 µM
TGI (SK-MEL-2 melanoma): > 100 µM
TGI (SK-MEL-28 melanoma): > 100 µM
TGI (SK-MEL-5 melanoma): > 100 µM
TGI (SK-OV-3 ovarian): > 100 µM
TGI (SN12C renal): > 100 µM
TGI (SN12K1 renal): > 100 µM
TGI (SNB-19 CNS): > 100 µM
TGI (SNB-75 CNS): > 100 µM
TGI (SNB-78 CNS): > 100 µM
TGI (SW-620 colon): > 100 µM
TGI (U251 CNS): > 100 µM
TGI (UACC-257 melanoma): > 100 µM
TGI (UO-31 renal): > 100 µM
TGI (XF 498 CNS): > 67.9 µM
